Test results taken from ChEMBL document CHEMBL1201862, “PubChem BioAssay data set” (2004).
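Cultured in 96-well plates, cells were exposed to test compound for 48 hours across five concentrations. GI50 marks 50% less growth.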 Active and inactive are the calls of the source. Rule as the data show it: active = GI50 up to about 1.1 µM and inactive = higher.

Legend:
Assay in all cases: NCI tumour cell line growth inhibition, 48 h
DMS-114 = system: DMS-114
M19-MEL = system: M19-MEL
XF498 = system: XF498
DMS-273 = system: DMS-273
RXF 631 = system: RXF 631
LXFL 529 = system: LXFL 529
SNB-78 = system: SNB-78
KM-20L2 = system: KM-20L2
HOP-18 = system: HOP-18

Row | SMILES | GI50 (DMS-114) | GI50 (M19-MEL) | GI50 (XF498) | GI50 (DMS-273) | GI50 (RXF 631) | GI50 (LXFL 529) | GI50 (SNB-78) | GI50 (KM-20L2) | GI50 (HOP-18)
1 | COC(=O)C1CC2(CC3=C1CCCC3)OCCO2 (stereo not drawn) | > 100 µM (inactive) | > 100 µM (inactive) | > 100 µM (inactive) | > 100 µM (inactive) | > 100 µM (inactive) | > 100 µM (inactive) | > 100 µM (inactive) |  | 
2 | O=C1C2=C(C(c3ccccc3)=C1c1ccccc1)c1ccccc1C1(c3ccccc3)C2=C(O)C(c2ccccc2)=C1c1ccccc1 (stereo not drawn) | > 100 µM (inactive) | > 100 µM (inactive) |  | > 100 µM (inactive) | > 100 µM (inactive) | > 100 µM (inactive) | > 100 µM (inactive) | > 100 µM (inactive) | > 100 µM (inactive)
3 | Cc1c(C(=O)C/C(=N/NC(=O)c2ccccc2)C(=O)Nc2ccc(Cl)cc2)[n+]([O-])c2ccccc2[n+]1[O-] | 32.6 µM (inactive) |  | > 100 µM (inactive) | 75.2 µM (inactive) | > 100 µM (inactive) | 84.3 µM (inactive) | > 100 µM (inactive) |  | > 100 µM (inactive)
4 | CCOC(=O)c1ccc(N2C(=O)/C(=C\OC)c3ccccc3C2=O)cc1 | 31.5 µM (inactive) | 75.2 µM (inactive) |  | 33.1 µM (inactive) |  | 23.6 µM (inactive) | 43.7 µM (inactive) | 37 µM (inactive) | 
5 | CCOC(OCC)C(CC)[Se]c1ccccc1[N+](=O)[O-] (stereo not drawn) |  | 4.42 µM (inactive) | 2.92 µM (inactive) | 1.01 µM (active) |  | 4.39 µM (inactive) | 7.76 µM (inactive) | 1.96 µM (inactive) | 11.8 µM (inactive)
6 | O=C1Oc2cc3c(c4cccc1c24)OCN(c1ccc(Cl)cc1)C3 | 5.9 µM (inactive) | 14.4 µM (inactive) | 16.7 µM (inactive) | 0.423 µM (active) |  | 0.622 µM (active) | > 100 µM (inactive) |  | 34 µM (inactive)
7 | O=C(/C=C/c1ccccc1)NC1C=Nc2ccc(Cl)cc2NC1=O (stereo not drawn) | 5.66 µM (inactive) | 23 µM (inactive) | 13.3 µM (inactive) | 18.2 µM (inactive) | 19.5 µM (inactive) | 23.9 µM (inactive) | 53.7 µM (inactive) | 26 µM (inactive) | 20.7 µM (inactive)
8 | CCOc1ccccc1NC(=O)C1=C(C)NC(C)=C(C(=O)Nc2ccccc2OCC)C1c1ccc(NC(C)=O)cc1 | 40.2 µM (inactive) | 28.2 µM (inactive) | 9.68 µM (inactive) |  |  | 47.6 µM (inactive) | 40.9 µM (inactive) | 25.8 µM (inactive) | 
9 | Cc1ccccc1C(CCCO)C(=O)O (stereo not drawn) | > 100 µM (inactive) | > 100 µM (inactive) | > 100 µM (inactive) | > 100 µM (inactive) |  | > 100 µM (inactive) | > 100 µM (inactive) |  | 
10 | CCN(CC)CCNC(=O)c1nn(C)c(=S)[nH]c1=S | > 100 µM (inactive) | > 100 µM (inactive) | > 100 µM (inactive) | > 100 µM (inactive) |  | > 100 µM (inactive) | > 100 µM (inactive) | > 100 µM (inactive) | > 100 µM (inactive)
11 | O=C(/C=C\c1cccc2ccccc12)c1cccc2ccccc12 | 5.51 µM (inactive) | 11.4 µM (inactive) | 7.57 µM (inactive) | 9.08 µM (inactive) | 7.89 µM (inactive) | 9.38 µM (inactive) | > 10 µM (inactive) | 9.55 µM (inactive) | > 10 µM (inactive)
12 | N#CC(NNC(=O)c1ccccc1O)c1ccccc1 (stereo not drawn) | 0.721 µM (active) | 1.32 µM (inactive) |  | 0.468 µM (active) |  | 0.652 µM (active) | 0.9 µM (active) | 22 µM (inactive) | 12.6 µM (inactive)
13 | CCOC(=O)NC(=O)c1cn(CCN2CCN(C(=O)CCCCCCCCCCC(=O)N3CCN(CCn4cc(C(=O)NC(=O)OCC)c(=O)[nH]c4=O)CC3)CC2)c(=O)[nH]c1=O | > 100 µM (inactive) | > 100 µM (inactive) | > 100 µM (inactive) |  |  | > 100 µM (inactive) |  |  | > 100 µM (inactive)
14 | CCSC1=C(C)N(/C=N/C(C)(C)C)CC1 | > 100 µM (inactive) | > 100 µM (inactive) | > 100 µM (inactive) | > 100 µM (inactive) | > 100 µM (inactive) | > 100 µM (inactive) | > 100 µM (inactive) | > 100 µM (inactive) | > 100 µM (inactive)
15 | CCCc1c(C(=O)OCC)[nH]c(-c2ccc(-c3[nH]c(C(=O)OCC)c(CCC)c3C(=O)OCC)s2)c1C(=O)OCC | 38.1 µM (inactive) | 52.8 µM (inactive) | 27.3 µM (inactive) | 30.7 µM (inactive) |  | 33 µM (inactive) | > 100 µM (inactive) | 72.1 µM (inactive) | > 100 µM (inactive)
16 | CCCCCC/C=C/CCCCCCCc1cccc(O)c1C(=O)O | > 100 µM (inactive) | > 100 µM (inactive) | > 100 µM (inactive) | 34.9 µM (inactive) | > 100 µM (inactive) | 45.4 µM (inactive) | > 100 µM (inactive) | > 100 µM (inactive) | 48.4 µM (inactive)
17 | On1c(-c2ccccc2)c(-c2c(-c3ccccc3)n(O)c3ccccc23)c2ccccc21 | 24.7 µM (inactive) | 11.2 µM (inactive) | 19.8 µM (inactive) | 39.6 µM (inactive) |  | 3.18 µM (inactive) | 35.7 µM (inactive) |  | 26.1 µM (inactive)
18 | O=C(COC(=O)c1cccc2c(=O)c3ccccc3[nH]c12)Nc1ccc(C(=O)O)cc1 | 61.8 µM (inactive) | > 100 µM (inactive) | 29.6 µM (inactive) |  | > 100 µM (inactive) |  | 59.3 µM (inactive) | > 100 µM (inactive) | > 100 µM (inactive)
19 | COC(=O)C1=C(C(=O)OC)C23CC4CCC2(C(=O)C1O3)C4(C)C (stereo not drawn) |  | > 100 µM (inactive) | > 100 µM (inactive) |  |  | > 100 µM (inactive) |  | > 100 µM (inactive) | 95.9 µM (inactive)
20 | Cc1ccc(S(=O)(=O)N/N=C/c2oc(-c3cccc([N+](=O)[O-])c3)c(-c3cccc([N+](=O)[O-])c3)c2[N+](=O)[O-])cc1 |  |  | > 100 µM (inactive) |  | 62.1 µM (inactive) | 36.7 µM (inactive) |  | > 100 µM (inactive) | > 100 µM (inactive)
21 | CC(C)(C)CC(C)(C)c1cc2c(O)c(c1)Cc1cc(C(C)(C)CC(C)(C)C)cc(c1O)Cc1cc(C(C)(C)CC(C)(C)C)cc(c1O)Cc1cc(C(C)(C)CC(C)(C)C)cc(c1O)Cc1cc(C(C)(C)CC(C)(C)C)cc(c1O)Cc1cc(C(C)(C)CC(C)(C)C)cc(c1O)C2 | > 100 µM (inactive) | > 100 µM (inactive) | > 100 µM (inactive) | > 100 µM (inactive) | > 100 µM (inactive) | > 100 µM (inactive) | > 100 µM (inactive) | > 100 µM (inactive) | 
22 | CN(C)CC/C(=N\Nc1ccc([N+](=O)[O-])cc1)c1ccccc1 | 5.14 µM (inactive) |  |  | 10.3 µM (inactive) |  | 5.83 µM (inactive) | 4.4 µM (inactive) | 4.33 µM (inactive) | 7.62 µM (inactive)
23 | O=P(Oc1ccc2ccccc2c1)(N1CC1)N1CC1 | 38.4 µM (inactive) | 13.5 µM (inactive) | 17.7 µM (inactive) | 6.21 µM (inactive) |  | > 100 µM (inactive) | > 100 µM (inactive) | > 100 µM (inactive) | 22.6 µM (inactive)
24 | O[C@]12c3ccccc3C1CCCCC2N1CCOCC1 (stereo partly drawn) | > 100 µM (inactive) | > 100 µM (inactive) | > 100 µM (inactive) | > 100 µM (inactive) |  | > 100 µM (inactive) | > 100 µM (inactive) | > 100 µM (inactive) | > 100 µM (inactive)
25 | CC[n+]1c(/C=C/c2ccc(N(CCCl)CCCl)cc2)ccc2cc(I)ccc21 | 0.607 µM (active) | 0.608 µM (active) |  | 0.525 µM (active) | 1.77 µM (inactive) | 0.409 µM (active) | 0.895 µM (active) | 1.02 µM (active) | 1.02 µM (active)
26 | N#Cc1c2c(c(N=P(c3ccccc3)(c3ccccc3)c3ccccc3)n3c1nc1ccccc13)CCCC2 | 21.5 µM (inactive) | 18 µM (inactive) |  | 14.5 µM (inactive) | 29 µM (inactive) | 20.6 µM (inactive) | 21.3 µM (inactive) | 17.4 µM (inactive) | 25.9 µM (inactive)
